Source: ChEMBL document CHEMBL1135618, “Design and pharmacology of N-[(3R)-1,2,3,4-tetrahydroisoquinolinium- 3-ylcarbonyl]-(1R)-1-(4-chlorobenzyl)- 2-[4-cyclohexyl-4-(1H-1,2,4-triazol- 1-ylmethyl)piperidin-1-yl]-2-oxoethylamine (1), a potent, selective, melanocortin subtype-4 receptor agonist” (J Med Chem, 2002)
Each block holds one compound with its values, some of them ahead of it.

Columns and labels:
Melanocortin receptor 3 [1] = biological target: T1, Melanocortin receptor 3 (Homo sapiens, UniProt P41968); assay: Maximum percentage of cAMP accumulation at 10 uM relative to alpha-MSH at MC3R; assay type: functional
T1 sequence (P41968 whole entry): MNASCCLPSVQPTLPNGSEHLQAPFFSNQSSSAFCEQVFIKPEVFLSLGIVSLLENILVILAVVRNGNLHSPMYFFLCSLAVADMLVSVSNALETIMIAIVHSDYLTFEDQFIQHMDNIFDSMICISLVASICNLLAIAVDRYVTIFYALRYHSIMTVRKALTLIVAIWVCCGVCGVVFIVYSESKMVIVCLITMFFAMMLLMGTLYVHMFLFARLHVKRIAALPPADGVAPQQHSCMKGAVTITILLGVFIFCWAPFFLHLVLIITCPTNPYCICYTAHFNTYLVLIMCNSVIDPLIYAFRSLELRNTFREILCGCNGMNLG

Melanocortin receptor 5 [2] = biological target: T2, Melanocortin receptor 5 (Homo sapiens, UniProt P33032); assay: Maximum percentage of cAMP accumulation at 10 uM relative to alpha-MSH at MC5R; assay type: functional
T2 sequence (P33032 whole entry): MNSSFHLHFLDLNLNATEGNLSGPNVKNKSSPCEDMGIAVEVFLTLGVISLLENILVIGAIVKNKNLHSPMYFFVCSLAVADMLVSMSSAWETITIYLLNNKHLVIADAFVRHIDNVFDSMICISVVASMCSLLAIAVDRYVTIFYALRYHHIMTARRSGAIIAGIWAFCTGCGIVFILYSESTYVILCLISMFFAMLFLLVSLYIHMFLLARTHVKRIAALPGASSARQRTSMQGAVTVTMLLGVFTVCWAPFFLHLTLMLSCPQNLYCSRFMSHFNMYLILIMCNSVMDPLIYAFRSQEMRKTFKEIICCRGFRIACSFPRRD

Melanocortin receptor 4 [3] = biological target: T3, Melanocortin receptor 4 (Homo sapiens, UniProt P32245); assay: Maximum percent cAMP accumulation at 10 uM relative to alpha-MSH at Melanocortin-4 receptor; assay type: functional
T3 sequence (P32245 whole entry): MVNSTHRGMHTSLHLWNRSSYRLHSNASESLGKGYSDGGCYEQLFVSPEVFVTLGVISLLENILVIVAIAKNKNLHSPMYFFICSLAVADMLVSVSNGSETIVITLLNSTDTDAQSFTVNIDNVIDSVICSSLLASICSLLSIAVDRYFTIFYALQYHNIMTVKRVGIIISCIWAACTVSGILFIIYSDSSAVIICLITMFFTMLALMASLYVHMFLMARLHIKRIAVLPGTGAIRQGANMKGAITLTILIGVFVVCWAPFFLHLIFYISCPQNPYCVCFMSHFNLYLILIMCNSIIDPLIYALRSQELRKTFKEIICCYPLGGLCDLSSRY

Melanocortin receptor 4 [4] = biological target: T3, Melanocortin receptor 4; assay: Evaluated for Functional Activity at Melanocortin-4 receptor as effective concentration at 50% maximum CMP accumulation
[5] = biological target: Melanocortin receptor (M3 and M4) (Homo sapiens) (UniProt P32245+P41968); assay: Evaluated for selectivity for MC3R versus MC4R displacing [125I]NDP-alpha-MSH radioligand expressed in CHO cells; assay type: cell-based
Melanocortin receptor 4 [6] = biological target: T3, Melanocortin receptor 4
Description: Evaluated for binding affinity against Melanocortin-4 receptor by displacing [125I]-NDP-alpha-MSH radioligand expressed in CHO cells

[7] = system: Melanocortin receptor 5 + Melanocortin receptor 4 (Homo sapiens); assay: Evaluated for selectivity for MC5R versus MC4R displacing [125I]NDP-alpha-MSH radioligand expressed in CHO cells
[8] = Percent bioavailability in rat evaluated at a dose 1 mg/kg (intravenous) and 10 mg/kg administered orally and was evaluated for; assay type: ADME, organism-based; details: in vivo, po
[9] = Evaluated for Plasma clearance in dog at dose 0.2 mg/kg (intravenous) and 0.5 mg/kg administered orally; assay type: ADME, organism-based, Canis lupus familiaris
[10] = Evaluated for plasma clearance in rat at a dose 1 mg/kg (intravenous) and 10 mg/kg administered orally; assay type: ADME, organism-based
[11] = Evaluated for half life in dog at dose 0.2 mg/kg (intravenous) and 0.5 mg/kg administered orally; assay type: ADME, organism-based, Canis lupus familiaris; details: in vivo
[12] = Volume of distribution evaluated at a dose 1 mg/kg (intravenous) and 10 mg/kg administered orally in rat; assay type: functional, organism-based
[13] = Evaluated for % bioavailability in dogat a dose 0.2 mg/kg (intravenous) and 0.5 mg/kg administered orally; assay type: ADME, organism-based, Canis lupus familiaris; details: dog, in vivo, po
[14] = Evaluated for maximum time Tmax in dog at dose 0.2 mg/kg (intravenous) and 0.5 mg/kg administered orally; assay type: functional, organism-based
[15] = Evaluated for maximum time Tmax in rat at a dose 1 mg/kg (intravenous) and 10 mg/kg administered orally; assay type: functional, organism-based
Melanocortin receptor 5 [16] = biological target: T2, Melanocortin receptor 5; assay: Evaluated for Functional Activity at MC5R as effective concentration at 50% maximum CMP accumulation
Melanocortin receptor 5 [17] = biological target: T2, Melanocortin receptor 5; assay: Functional activity as concentration at 50% maximum cAMP accumulation in human […] (MC5R) receptor
Melanocortin receptor 4 [18] = biological target: T4, Melanocortin receptor 4 (Rattus norvegicus, UniProt P70596); assay: Functional activity as concentration at 50% maximum cAMP accumulation in rat Melanocortin-4 receptor (rMC4R)
T4 sequence (P70596 whole entry): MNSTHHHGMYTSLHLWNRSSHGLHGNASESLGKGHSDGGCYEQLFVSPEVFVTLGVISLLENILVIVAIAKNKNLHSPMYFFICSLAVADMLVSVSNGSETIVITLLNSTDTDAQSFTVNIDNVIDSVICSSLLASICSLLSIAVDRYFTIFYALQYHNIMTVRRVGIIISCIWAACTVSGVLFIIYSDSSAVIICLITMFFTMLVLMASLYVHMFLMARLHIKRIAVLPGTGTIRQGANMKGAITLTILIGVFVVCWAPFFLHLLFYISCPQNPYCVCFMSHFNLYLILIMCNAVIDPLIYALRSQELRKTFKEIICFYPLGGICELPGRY

Melanocortin receptor 4 [19] = biological target: T4, Melanocortin receptor 4; assay: Evaluated for binding affinity against rat Melanocortin-4 receptor (rMC4R) by displacing [125I]NDP-alpha-MSH radioligand expressed in CHO cells; assay type: cell-based
Melanocortin receptor 5 [20] = biological target: T5, Melanocortin receptor 5 (Rattus norvegicus, UniProt P35345); assay: Functional activity as concentration at 50% maximum cAMP accumulation in rat Melanocortin-5 receptor (rMC5R)
T5 sequence (P35345 whole entry): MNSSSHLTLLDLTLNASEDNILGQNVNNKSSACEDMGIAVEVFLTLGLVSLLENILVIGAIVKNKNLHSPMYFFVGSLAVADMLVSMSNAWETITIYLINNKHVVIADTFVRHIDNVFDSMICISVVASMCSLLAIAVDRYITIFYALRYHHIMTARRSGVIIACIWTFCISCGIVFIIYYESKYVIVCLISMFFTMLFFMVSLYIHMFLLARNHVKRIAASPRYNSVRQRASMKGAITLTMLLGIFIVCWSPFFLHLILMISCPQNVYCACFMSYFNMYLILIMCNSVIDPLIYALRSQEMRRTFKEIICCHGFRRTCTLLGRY

Melanocortin receptor 5 [21] = biological target: T5, Melanocortin receptor 5; assay: Evaluated for binding affinity against rat Melanocortin-5 receptor (rMC5R) by displacing [125I]NDP-alpha-MSH radioligand expressed in CHO cells; assay type: cell-based
[22] = biological target: Melanocortin receptor 3 (Rattus norvegicus) (UniProt P32244); assay: Percentage of cAMP accumulation at 10 uM relative to alpha-MSH at rat Melanocortin-3 receptor; assay type: functional
Sequence of Melanocortin receptor 3 (Rattus norvegicus) (P32244 whole entry): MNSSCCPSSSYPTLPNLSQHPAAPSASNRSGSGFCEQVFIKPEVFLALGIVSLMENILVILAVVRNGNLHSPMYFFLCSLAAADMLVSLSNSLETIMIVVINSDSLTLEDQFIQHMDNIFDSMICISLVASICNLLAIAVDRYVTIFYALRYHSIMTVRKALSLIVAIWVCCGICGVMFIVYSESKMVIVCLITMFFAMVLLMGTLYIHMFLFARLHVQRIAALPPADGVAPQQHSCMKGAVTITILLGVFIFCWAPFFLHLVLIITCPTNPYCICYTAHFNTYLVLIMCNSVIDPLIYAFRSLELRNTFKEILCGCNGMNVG

Melanocortin receptor 3 [23] = biological target: T6, Melanocortin receptor 3 (Rattus norvegicus, UniProt P32244); assay: Functional activity as concentration at 50% maximum cAMP accumulation in rat Melanocortin-3 receptor (rMC3R)
T6 sequence (P32244 whole entry): as above

Melanocortin receptor 5 [24] = biological target: T2, Melanocortin receptor 5; assay: Evaluated for binding affinity against human melanocortin 5 (hMC5R) receptor by displacing [125I]NDP-alpha-MSH radioligand expressed in CHO cells; assay type: cell-based
Melanocortin receptor 3 [25] = biological target: T6, Melanocortin receptor 3; assay: Evaluated for binding affinity against rat Melanocortin-3 receptor (rMC3R) by displacing [125I]-NDP-alpha-MSH radioligand expressed in CHO cells; assay type: cell-based
[26] = Half life in rat evaluated at a dose 1 mg/kg (intravenous) and 10 mg/kg administered orally and was evaluated for; assay type: ADME, organism-based; details: in vivo
[27] = biological target: Melanocortin receptor 5 (Rattus norvegicus) (UniProt P35345); assay: Percentage of cAMP accumulation at 10 uM relative to alpha-MSH at rat Melanocortin-5 receptor; assay type: functional
Sequence of Melanocortin receptor 5 (Rattus norvegicus) (P35345 whole entry): as the sequence (P35345 whole entry) above

[28] = biological target: Melanocortin receptor 4 (Rattus norvegicus) (UniProt P70596); details: 10 uM
Sequence of Melanocortin receptor 4 (Rattus norvegicus) (P70596 whole entry): as the sequence (P70596 whole entry) above
Description: Percentage of cAMP accumulation at 10 uM relative to alpha-MSH at rat Melanocortin-4 receptor

Melanocortin receptor 5 [29] = biological target: T2, Melanocortin receptor 5; details: 10 uM
Description: Percentage of cAMP accumulation at 10 uM relative to alpha-MSH at human Melanocortin 5 receptor

Melanocortin receptor 3 [30] = biological target: T1, Melanocortin receptor 3; details: 10 uM
Description: Percentage of cAMP accumulation at 10 uM relative to alpha-MSH at human Melanocortin-3 receptor

[31] = biological target: Melanocyte-stimulating hormone receptor (Homo sapiens) (UniProt Q01726); details: 10 uM
Sequence of Melanocyte-stimulating hormone receptor (Homo sapiens) (Q01726 whole entry, looked up): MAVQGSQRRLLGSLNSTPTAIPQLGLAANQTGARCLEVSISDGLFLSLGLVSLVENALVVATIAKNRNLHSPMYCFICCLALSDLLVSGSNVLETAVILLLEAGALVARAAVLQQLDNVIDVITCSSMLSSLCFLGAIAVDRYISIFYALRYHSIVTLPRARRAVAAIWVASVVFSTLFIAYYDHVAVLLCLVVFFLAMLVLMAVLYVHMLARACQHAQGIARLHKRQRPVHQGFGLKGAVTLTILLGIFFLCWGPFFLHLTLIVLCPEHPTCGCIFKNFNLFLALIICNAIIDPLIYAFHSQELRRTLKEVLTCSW
Description: Percentage of cAMP accumulation at 10 uM relative to alpha-MSH at hMC1R

[32] = Volume of distribution evaluated at a dose 0.2 mg/kg (intravenous) and 0.5 mg/kg administered orally in dog
Melanocortin receptor 3 [33] = biological target: T1, Melanocortin receptor 3; assay: Evaluated for Functional Activity at MC3R as % of cAMP accumulation at 10 uM relative to alpha-MSH
Melanocortin receptor 3 [34] = biological target: T1, Melanocortin receptor 3; assay: Evaluated for Functional Activity at MC3R as effective concentration at 50% maximum CMP accumulation

SMILES: O=C(N[C@H](Cc1ccc(Cl)cc1)C(=O)N1CCC(Cn2cncn2)(C2CCCCC2)CC1)[C@H]1Cc2ccccc2CN1
bioavailability [8]: 14%
clearance [9]: 27.6 mL/min/kg
clearance [10]: 84 mL/min/kg
half-life [11]: 1.2 h
Vdss [12]: 3.6 L/kg
bioavailability [13]: 16%
Tmax [14]: 1.5 h
Tmax [15]: 1 h
Activity (Melanocortin receptor 3 [1]): 32%
Activity (Melanocortin receptor 5 [2]): 61%
EC50 (Melanocortin receptor 5 [16]): 736 nM
EC50 (Melanocortin receptor 5 [17]): 737 nM
EC50 (Melanocortin receptor 4 [18]): 2.9 nM
IC50 (Melanocortin receptor 4 [19]): 0.6 nM
EC50 (Melanocortin receptor 5 [20]): > 3000 nM
IC50 (Melanocortin receptor 5 [21]): 1570 nM
Activation [22]: 65%
EC50 (Melanocortin receptor 3 [23]): 1320 nM
IC50 (Melanocortin receptor 5 [24]): 326 nM
IC50 (Melanocortin receptor 3 [25]): 1880 nM
half-life [26]: 0.6 h
Activation [27]: 58%
Activation [28]: 99%
Activation (Melanocortin receptor 5 [29]): 61%
Activation (Melanocortin receptor 3 [30]): 32%
Activation [31]: 95%
Vdss [32]: 2.79 L/kg

SMILES: O=C(N[C@@H](Cc1ccc(Cl)cc1)C(=O)N1CCC(Cn2cncn2)(C2CCCCC2)CC1)[C@H]1Cc2ccccc2CN1
Activity (Melanocortin receptor 3 [1]): 1%
Activity (Melanocortin receptor 5 [2]): 2%
Activity (Melanocortin receptor 4 [3]): 9%

SMILES: CS(=O)(=O)N1CC2(CCN(C(=O)[C@@H](Cc3ccccc3)NC(=O)[C@@H](N)Cc3c[nH]cn3)CC2)c2ccccc21
EC50 (Melanocortin receptor 4 [4]): 500 nM

SMILES: CS(=O)(=O)N1CC2(CCN(C(=O)[C@@H](Cc3ccc4ccccc4c3)NC(=O)[C@@H](N)Cc3cnc[nH]3)CC2)c2ccccc21
IC50 (Melanocortin receptor 4 [6]): 108 nM

Continued, values first:

Activity (Melanocortin receptor 3 [1]): 10%
Activity (Melanocortin receptor 5 [2]): 15%
Activity (Melanocortin receptor 4 [3]): 79%
EC50 (Melanocortin receptor 4 [4]): 771 nM
Selectivity [5]: 53
IC50 (Melanocortin receptor 4 [6]): 238 nM
Selectivity [7]: 19
SMILES: O=C(N[C@H](Cc1ccc(Cl)cc1)C(=O)N1CCC(Cc2nnn[nH]2)(C2CCCCC2)CC1)[C@H]1Cc2ccccc2CN1

Activity (Melanocortin receptor 3 [33]): 24%
EC50 (Melanocortin receptor 5 [16]): 1000 nM
Activity (Melanocortin receptor 4 [3]): 87%
EC50 (Melanocortin receptor 4 [4]): 9.6 nM
IC50 (Melanocortin receptor 4 [6]): 1.2 nM
SMILES: Cn1nnc(CC2(C3CCCCC3)CCN(C(=O)[C@@H](Cc3ccc(Cl)cc3)NC(=O)[C@H]3Cc4ccccc4CN3)CC2)n1

Activity (Melanocortin receptor 3 [1]): 50%
EC50 (Melanocortin receptor 3 [34]): 59 nM
Activity (Melanocortin receptor 5 [2]): 51%
EC50 (Melanocortin receptor 5 [16]): 127 nM
Activity (Melanocortin receptor 4 [3]): 103%
EC50 (Melanocortin receptor 4 [4]): 0.6 nM
Selectivity [5]: 277
IC50 (Melanocortin receptor 4 [6]): 0.3 nM
Selectivity [7]: 100
SMILES: Cn1nnnc1CC1(C2CCCCC2)CCN(C(=O)[C@@H](Cc2ccc(Cl)cc2)NC(=O)[C@H]2Cc3ccccc3CN2)CC1

Activity (Melanocortin receptor 3 [1]): 7%
Activity (Melanocortin receptor 5 [2]): 19%
EC50 (Melanocortin receptor 5 [16]): 271 nM
Activity (Melanocortin receptor 4 [3]): 67%
SMILES: O=C(N[C@H](Cc1ccc(Cl)cc1)C(=O)N1CCC(Cn2cncn2)(C2CCCCC2)CC1)[C@@H]1Cc2ccccc2CN1

Activity (Melanocortin receptor 3 [1]): 4%
Activity (Melanocortin receptor 5 [2]): 5%
Activity (Melanocortin receptor 4 [3]): 34%
SMILES: O=C(N[C@@H](Cc1ccc(Cl)cc1)C(=O)N1CCC(Cn2cncn2)(C2CCCCC2)CC1)[C@@H]1Cc2ccccc2CN1
